Measured values as given in patent US11779564B2, “Methods and compositions for treating bile acid diarrhea, diarrhea associated with small intestine resection or gallbladder removal, and short bowel syndrome” (NAPO PHARMACEUTICALS, INC., priority 2017, dated 2023).

Experiments:
[1] = test system: chronic diarrhea in patient with SBS; assay: Case report: SBS patient with chronic diarrhea (Example 1); conditions: same patient, attempted for 12 years before crofelemer
[2] = in vivo, cited from earlier work

## CN1[C@@H]2CC[C@H]1C[C@@H](OC(=O)C(CO)c1ccccc1)C2 (stereo partly shown) [atropine]
[1]
  effectiveness in relieving diarrhea symptoms (earlier treatments): None of which were effective

## COc1ccc2c3c1O[C@H]1[C@@H](O)C=C[C@H]4[C@@H](C2)N(C)CC[C@@]341 [codeine]
[1]
  effectiveness in relieving diarrhea symptoms (earlier treatments): None of which were effective

## CCOC(=O)C1(c2ccccc2)CCN(CCC(C#N)(c2ccccc2)c2ccccc2)CC1 [diphenoxylate]
[1]
  effectiveness in relieving diarrhea symptoms (earlier treatments): None of which were effective

## CN(C)C(=O)C(CCN1CCC(O)(c2ccc(Cl)cc2)CC1)(c1ccccc1)c1ccccc1 [loperamide]
[1]
  effectiveness in relieving diarrhea symptoms (earlier treatments): None of which were effective

## crofelemer
[2]; human
  systemic bioavailability: virtually no systemic bioavailability
[2]
  absorption from the GI tract: little or no absorption
  tolerability: well tolerated
